# Data from article PMC9851200, “Multiparameter phenotypic screening for endogenous TFEB and TFE3 translocation identifies novel chemical series modulating lysosome function” (Autophagy, 2022).
# Where two headings read alike, the source gives them in different places.
# Legend:
# Type in all cases: binding
# [1] = molecular target: CIT (Homo sapiens, UniProt O14578); test: KINOMEscan CIT; details: NEW KINOMEscan
# [2] = molecular target: T1, ACVR1B (Homo sapiens, UniProt P36896); test: KINOMEscan ACVR1B
# T1 sequence (P36896 24-505): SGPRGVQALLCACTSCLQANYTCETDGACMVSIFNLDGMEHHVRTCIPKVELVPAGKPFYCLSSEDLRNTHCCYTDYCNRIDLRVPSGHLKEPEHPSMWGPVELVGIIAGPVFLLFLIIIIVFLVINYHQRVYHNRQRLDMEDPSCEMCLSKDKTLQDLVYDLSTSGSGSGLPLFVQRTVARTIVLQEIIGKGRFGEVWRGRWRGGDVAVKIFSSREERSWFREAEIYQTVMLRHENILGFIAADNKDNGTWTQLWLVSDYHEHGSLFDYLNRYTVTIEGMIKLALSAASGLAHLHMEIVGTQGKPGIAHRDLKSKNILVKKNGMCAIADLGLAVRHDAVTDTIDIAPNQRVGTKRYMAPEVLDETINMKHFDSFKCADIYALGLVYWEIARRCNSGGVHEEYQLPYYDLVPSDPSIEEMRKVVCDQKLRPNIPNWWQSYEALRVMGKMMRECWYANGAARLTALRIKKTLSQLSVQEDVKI
# [3] = molecular target: T2, PRKD1 (Homo sapiens, UniProt Q15139); test: KINOMEscan PRKD1; details: NEW KINOMEscan
# T2 sequence (Q15139 1-912): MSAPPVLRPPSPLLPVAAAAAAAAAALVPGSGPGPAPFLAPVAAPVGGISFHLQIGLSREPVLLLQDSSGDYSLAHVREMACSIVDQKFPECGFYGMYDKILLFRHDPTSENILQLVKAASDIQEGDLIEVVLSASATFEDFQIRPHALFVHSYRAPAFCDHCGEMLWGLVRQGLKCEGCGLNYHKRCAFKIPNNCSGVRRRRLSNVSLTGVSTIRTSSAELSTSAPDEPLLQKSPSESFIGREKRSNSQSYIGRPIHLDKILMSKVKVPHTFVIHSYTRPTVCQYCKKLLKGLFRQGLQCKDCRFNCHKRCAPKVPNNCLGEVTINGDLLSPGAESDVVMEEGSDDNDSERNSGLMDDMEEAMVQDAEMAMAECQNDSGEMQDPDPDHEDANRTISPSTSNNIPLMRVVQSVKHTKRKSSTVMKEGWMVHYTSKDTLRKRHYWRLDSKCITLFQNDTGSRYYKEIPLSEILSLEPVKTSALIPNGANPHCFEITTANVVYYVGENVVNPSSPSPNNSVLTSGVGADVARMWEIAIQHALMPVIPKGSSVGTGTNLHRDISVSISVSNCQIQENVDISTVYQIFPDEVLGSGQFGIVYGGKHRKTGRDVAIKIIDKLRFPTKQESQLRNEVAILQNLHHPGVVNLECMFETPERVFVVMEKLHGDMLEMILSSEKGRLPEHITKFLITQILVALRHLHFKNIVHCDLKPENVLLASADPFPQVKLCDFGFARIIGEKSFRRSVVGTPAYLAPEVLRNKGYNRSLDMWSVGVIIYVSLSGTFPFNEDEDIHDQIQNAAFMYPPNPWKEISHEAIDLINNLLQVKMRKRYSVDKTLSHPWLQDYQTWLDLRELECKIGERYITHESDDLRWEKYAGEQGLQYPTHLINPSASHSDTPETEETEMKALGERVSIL
# [4] = molecular target: TGFBR2 (Homo sapiens, UniProt P37173); test: KINOMEscan TGFBR2; details: NEW KINOMEscan
# [5] = molecular target: T3, JAK1(JH2) (Homo sapiens, UniProt P23458); test: KINOMEscan JAK1(JH2); details: NEW KINOMEscan
# T3 construct: JAK1(JH2)
# [6] = molecular target: T4, PRKD3 (Homo sapiens, UniProt O94806); test: KINOMEscan PRKD3; details: kinase PRKD3; NEW KINOMEscan
# T4 sequence (O94806 1-890): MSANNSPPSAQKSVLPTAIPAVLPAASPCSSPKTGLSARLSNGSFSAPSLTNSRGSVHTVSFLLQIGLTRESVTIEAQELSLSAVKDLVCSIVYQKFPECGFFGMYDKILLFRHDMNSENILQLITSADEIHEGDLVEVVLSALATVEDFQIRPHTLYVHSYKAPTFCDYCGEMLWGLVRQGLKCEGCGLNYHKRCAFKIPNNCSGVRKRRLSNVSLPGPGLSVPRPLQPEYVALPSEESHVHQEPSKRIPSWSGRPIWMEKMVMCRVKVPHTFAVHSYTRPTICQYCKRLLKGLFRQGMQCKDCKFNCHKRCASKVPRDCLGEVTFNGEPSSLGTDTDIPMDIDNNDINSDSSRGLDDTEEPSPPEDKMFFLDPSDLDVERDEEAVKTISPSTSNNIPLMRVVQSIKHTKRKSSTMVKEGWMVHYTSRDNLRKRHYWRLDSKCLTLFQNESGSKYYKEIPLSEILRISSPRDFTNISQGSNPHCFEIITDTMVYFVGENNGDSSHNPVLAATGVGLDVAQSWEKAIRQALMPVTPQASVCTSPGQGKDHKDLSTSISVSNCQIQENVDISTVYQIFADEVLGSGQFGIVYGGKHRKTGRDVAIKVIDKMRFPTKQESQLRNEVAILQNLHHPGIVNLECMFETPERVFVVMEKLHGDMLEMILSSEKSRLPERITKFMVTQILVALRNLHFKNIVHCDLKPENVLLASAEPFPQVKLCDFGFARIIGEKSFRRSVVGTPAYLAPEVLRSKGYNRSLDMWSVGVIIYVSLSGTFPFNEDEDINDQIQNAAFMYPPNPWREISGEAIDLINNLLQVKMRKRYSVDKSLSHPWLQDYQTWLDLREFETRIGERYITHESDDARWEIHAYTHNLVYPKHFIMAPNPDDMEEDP
# T3 sequence (P23458 583-855 limits assumed): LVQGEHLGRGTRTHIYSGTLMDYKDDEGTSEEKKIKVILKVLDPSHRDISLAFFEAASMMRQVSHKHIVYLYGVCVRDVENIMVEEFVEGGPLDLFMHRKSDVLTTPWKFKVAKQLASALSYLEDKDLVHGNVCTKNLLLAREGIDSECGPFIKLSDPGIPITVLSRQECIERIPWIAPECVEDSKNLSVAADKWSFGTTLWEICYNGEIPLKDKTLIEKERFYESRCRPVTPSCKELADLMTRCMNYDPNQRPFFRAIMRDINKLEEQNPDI
# Chain of CIT (O14578 whole entry): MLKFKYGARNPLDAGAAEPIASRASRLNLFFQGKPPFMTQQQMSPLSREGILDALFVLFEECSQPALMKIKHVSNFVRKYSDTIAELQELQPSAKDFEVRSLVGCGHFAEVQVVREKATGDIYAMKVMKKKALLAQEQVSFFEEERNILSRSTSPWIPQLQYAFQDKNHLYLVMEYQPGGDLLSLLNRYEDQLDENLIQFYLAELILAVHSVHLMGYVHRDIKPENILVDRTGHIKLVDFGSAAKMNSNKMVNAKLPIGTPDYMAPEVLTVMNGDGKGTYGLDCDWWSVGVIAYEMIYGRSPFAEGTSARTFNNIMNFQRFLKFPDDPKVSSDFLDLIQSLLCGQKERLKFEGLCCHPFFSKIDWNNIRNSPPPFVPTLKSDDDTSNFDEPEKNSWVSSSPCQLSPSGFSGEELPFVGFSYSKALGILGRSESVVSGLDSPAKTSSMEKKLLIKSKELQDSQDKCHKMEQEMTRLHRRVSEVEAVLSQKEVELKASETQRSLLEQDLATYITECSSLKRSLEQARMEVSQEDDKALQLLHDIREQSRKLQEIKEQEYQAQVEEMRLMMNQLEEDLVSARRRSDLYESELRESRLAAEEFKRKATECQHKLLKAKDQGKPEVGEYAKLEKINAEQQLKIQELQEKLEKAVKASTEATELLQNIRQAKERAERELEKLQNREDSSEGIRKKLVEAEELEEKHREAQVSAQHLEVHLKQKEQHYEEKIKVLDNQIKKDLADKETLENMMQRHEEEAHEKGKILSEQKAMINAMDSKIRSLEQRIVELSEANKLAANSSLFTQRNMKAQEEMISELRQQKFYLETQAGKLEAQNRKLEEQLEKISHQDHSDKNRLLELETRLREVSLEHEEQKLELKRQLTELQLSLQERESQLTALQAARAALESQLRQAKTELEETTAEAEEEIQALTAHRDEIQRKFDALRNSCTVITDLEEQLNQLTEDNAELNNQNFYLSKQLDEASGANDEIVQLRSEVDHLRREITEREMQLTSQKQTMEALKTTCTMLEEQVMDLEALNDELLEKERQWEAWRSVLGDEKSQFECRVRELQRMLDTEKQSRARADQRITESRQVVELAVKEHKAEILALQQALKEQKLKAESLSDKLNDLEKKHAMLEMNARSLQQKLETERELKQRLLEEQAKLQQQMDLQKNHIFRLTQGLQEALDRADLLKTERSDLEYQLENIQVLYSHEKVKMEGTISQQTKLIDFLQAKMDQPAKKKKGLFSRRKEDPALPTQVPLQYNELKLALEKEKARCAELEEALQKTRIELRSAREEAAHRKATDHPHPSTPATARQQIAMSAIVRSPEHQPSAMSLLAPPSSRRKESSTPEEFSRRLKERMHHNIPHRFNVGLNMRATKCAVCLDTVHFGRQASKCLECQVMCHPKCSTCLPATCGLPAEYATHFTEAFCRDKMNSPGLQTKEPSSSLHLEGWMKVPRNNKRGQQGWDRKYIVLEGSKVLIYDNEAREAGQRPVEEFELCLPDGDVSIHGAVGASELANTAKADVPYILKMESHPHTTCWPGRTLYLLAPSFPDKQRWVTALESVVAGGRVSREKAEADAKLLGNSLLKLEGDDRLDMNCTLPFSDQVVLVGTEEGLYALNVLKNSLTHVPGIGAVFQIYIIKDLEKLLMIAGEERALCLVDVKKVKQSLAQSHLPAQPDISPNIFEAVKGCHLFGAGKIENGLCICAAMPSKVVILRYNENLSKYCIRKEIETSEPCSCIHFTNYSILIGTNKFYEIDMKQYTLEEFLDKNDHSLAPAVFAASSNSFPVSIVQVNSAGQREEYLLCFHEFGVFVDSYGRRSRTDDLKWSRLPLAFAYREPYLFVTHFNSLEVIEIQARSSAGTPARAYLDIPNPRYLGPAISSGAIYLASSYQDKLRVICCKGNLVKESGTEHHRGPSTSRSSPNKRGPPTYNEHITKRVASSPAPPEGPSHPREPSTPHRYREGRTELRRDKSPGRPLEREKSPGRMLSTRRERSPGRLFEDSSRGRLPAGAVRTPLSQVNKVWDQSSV
# Chain of TGFBR2 (P37173 23-567): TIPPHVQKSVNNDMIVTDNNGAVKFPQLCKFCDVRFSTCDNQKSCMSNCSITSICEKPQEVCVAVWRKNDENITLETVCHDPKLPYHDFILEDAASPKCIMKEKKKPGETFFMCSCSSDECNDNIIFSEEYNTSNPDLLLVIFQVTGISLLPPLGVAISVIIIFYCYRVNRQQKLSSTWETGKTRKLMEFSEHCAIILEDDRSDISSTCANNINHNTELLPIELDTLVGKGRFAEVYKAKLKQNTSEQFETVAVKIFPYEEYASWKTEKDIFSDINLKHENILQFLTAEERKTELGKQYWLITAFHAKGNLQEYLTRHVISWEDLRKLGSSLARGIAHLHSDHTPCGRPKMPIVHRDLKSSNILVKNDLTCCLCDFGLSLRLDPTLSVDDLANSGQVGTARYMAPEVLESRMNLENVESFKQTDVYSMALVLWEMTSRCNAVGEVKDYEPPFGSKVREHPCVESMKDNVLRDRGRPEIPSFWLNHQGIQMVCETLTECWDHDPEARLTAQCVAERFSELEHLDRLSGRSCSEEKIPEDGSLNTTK
smiles,measurement,setting,value
Cc1cccc(-c2nc(Nc3ccc4nn(C)cc4c3)c3ccccc3n2)n1 [NK167],KINOMEscan CIT,[1],3
same,KINOMEscan ACVR1B,[2],20
same,KINOMEscan PRKD1,[3],0
same,KINOMEscan TGFBR2,[4],0
same,KINOMEscan JAK1(JH2domain-pseudokinase),[5],36
same,KINOMEscan PRKD3,[6],39
Cc1cccc(-c2nc(N(C)c3ccc4ncsc4c3)c3ccccc3n2)n1 [NK-161],KINOMEscan CIT,[1],0
same,KINOMEscan ACVR1B,"[2]; ACVR1B, NEW KINOMEscan",28
same,KINOMEscan PRKD1,[3],46
same,KINOMEscan TGFBR2,[4],0
same,KINOMEscan JAK1(JH2domain-pseudokinase),[5],41
same,KINOMEscan PRKD3,[6],74
